Experimental data as given in article PMC6196238, “Novobiocin, a Newly Found TRPV1 Inhibitor, Attenuates the Expression of TRPV1 in Rat Intestine and Intestinal Epithelial Cell Line IEC-6” (Frontiers in Pharmacology, 2018).
One block for each compound: values may come before it.

How the values were obtained:
IEC-6/TRPV1+ cells [1] = experiment: MTT cell viability assay; conditions: for Cell Survival: IEC-6/TRPV1+
Description: (§1) The rat intestinal epithelial cell line IEC-6, purchased from Kunming Institute of Zoology. CAS, was cultured in Dulbecco’s Modified Eagle’s Medium (DMEM) (Gibco, Grand Island, NY, United States) supplemented with 10% fetal bovine serum (FBS; Gibco) at 37°C in a humidified atmosphere of 5% CO2.
(§2) The plasmid pENTER containing the TRPV1 coding sequence NM_080704 was used as template in a PCR with the following primers: 5′-[…]-3′ (forward) and 5′-[…] (reverse). And synthetic small interfering RNA (siRNA) specific for rat TRPV1 (TRPV1-siRNA) was purchased from Vigene Bioscience (Rockville, MD, United States) with the following sequences: 5′-[…]-3′ (forward) and 5′-[…]-3′ (reverse) for TRPV1-siRNA. The transfecting process was conducted by using the lipofectamin® 3000 transfection reagent (Invitrogen^TM, Carlsbad, CA, United States), according to the manufacturer’s protocol.
(§3) The transfected cells were plated in 96-well plates. […] Optical density at 490 nm was used to evaluate cell viability in 96-well plates.

IEC-6/TRPV1- cells [2] = experiment: MTT cell viability assay
Description: as §1, §2, §3

TRPV1 = TRPV1 expression in IEC-6/TRPV1+ cells (qRT-PCR, western blot, immunofluorescence); format: cell-based, rat; conditions: for fluorescence intensity of TRPV1: pre-treatment 24 h, NOVO 10 μM, SB-705498 0.1 μM, Figure 2G
Description: The IEC-6/TRPV1^+ cells were cultured on coverslips in 24-well plates overnight. Briefly, cells were stimulated with NOVO (10 μM), SB-705498 (0.1 μM) for 24 h. At the end of incubation, cells were fixed with 4% paraformaldehyde in 0.1 M PBS for 20 min. The cells were then treated by 0.25% (v/v) TritonX-100 for 5 min, and washed again. Followed by blocking in 5% (v/v) horse serum for 60 min, cells were then incubated with primary antibodies for the anti-TRPV1 receptor antibody (1:1000, NB100-1617, Novus) overnight in a 4°C refrigerator. Alexa Flour® 488-conjugated goat anti-rabbit IgG (Zhongshan Goldenbridge Biotechnology) at 1:100 dilution was used as the secondary antibody that incubated cells for 60 min. Thereafter, the coverslips were mounted face down onto slides with mounting medium containing DAPI and stored at 4°C before microscopy. Fluorescence images were captured using a fluorescence microscope (Olympus, Japan).
qRT-PCR was performed to evaluate TRPV1 mRNA expression after NOVO treatment. The total RNA of the cells or tissues was isolated with an RNA isolation plus kit (Takara Shuzo, Kyoto, Japan), according to the manufacturer’s protocol. The quality of RNA was confirmed by agarose gel electrophoresis and an optical density measurement of A260/A280. The cDNAs were prepared using SYBR® Premix Ex Taq^TMII (Takara Shuzo, Kyoto, Japan) and the following primers: 5′-[…]-3′ and 5′-[…]-3′ for TRPV1, and 5′-[…]-3′, 5′-[…]-3′ for GAPDH were carried out by using the LightCycler480 System. The relative expression was calculated by the 2^-ΔΔC(t) method ([Livak and Schmittgen, 2001]).
After treatment, the cells or tissues were collected and washed with PBS. Membrane protein extracts were obtained with Membrane Protein Extraction Kit (Thermo Fisher Scientific Inc, United States), according to the manufacturer’s protocol. Protein concentrations were quantified by using the BCA Protein Assay kit (Beyotime, Shanghai, China). Equal amounts of protein were resolved by SDS-PAGE on a 10% polyacrylamide gel and transferred onto a polyvinylidene fluoride membrane. […]

IEC-6/TRPV1- cells [3] = experiment: CAP accumulation assay; format: cell-based, rat; conditions: 2.5-10 μM NOVO, 10 μM RR, 0.1 μM SB-705498, Figure 3D
Description: The transfected cells were grown to 80% confluence in 12-well plates. The experiment was divided into three parts: […] SB-705498, RR or NOVO was then added to the medium for another 15, 30, and 60 min. […] After incubation, the medium was removed, and cell layers were washed three times with ice-cold PBS and then extracted with Membrane Protein Extraction Kit (Thermo Fisher Scientific Inc, Rockford, IL, United States), according to the manufacturer’s protocol. The cytosolic protein extracts were stored at -80°C until LC-MS/MS analysis. The plasma samples and protein sample with 100 μL were extracted with 400 μL of methanol involving IS (verapamil 50 ng⋅mL^-1) by vortex-mix for 1 min, ultrasonic extraction for 1 h, and then centrifugation for 30 min at 15000 g. The supernatant was transferred into a borosilicate glass and 2 μL was subjected to LC-MS/MS analysis. The LC-MS/MS system consisted of Agilent 6460 Triple Quadrupole LC/MS systems via an ESI interface. The samples were separated on an Agilent ZORBAX SB-C18 column (3.5 μm, 2.1 mm × 150 mm) and the column temperature was maintained at 30°C. The mobile phase consisted of acetonitrile and water contains 0.1% formic acid (70:30, v/v). The flow rate was 0.2 mL⋅min^-1. The ion source was an electrospray ionization interface in the positive mode. […] Other parameters were as follows: spray voltage, 4.0 kV; capillary temperature, 350°C; gas flow, 10 L⋅min^-1.

IEC-6/TRPV1+ cells [4] = experiment: LDH release assay (cell membrane integrity); conditions: for LDH release: IEC-6/TRPV1+; for LDH release compared with the control: NOVO 2.5, 5, 10 μM, CAP 25 μM, RR 10 μM, SB-705498 0.1 μM, 12 and 24 h
Description: (§4) The transfected cells were plated in 12-well plates. […] The cells were centrifuged at 1000 g for 5 min. Next, 50 μL of supernatants were aspirated and the rest of supernatants were discarded. The cells were washed twice with deionized water and then lysed by ultrasonic wave cracker. And then cell lysate and supernatants were analyzed by using LDH Release Assay Kit, according to the manufacturer’s instructions.

IEC-6/TRPV1- cells [5] = experiment: LDH release assay (cell membrane integrity)
Description: as §4

LDH release (IEC-6/TRPV1+ cells [4]; 1 μM, 12 h): 0.415 ± 0.169 gprot⋅mL ^-1 | LDH release (IEC-6/TRPV1+ cells [4]; 1 μM, 24 h): 0.353 ± 0.026 gprot⋅mL ^-1 | LDH release (IEC-6/TRPV1+ cells [4]; 5 μM, 12 h): 0.356 ± 0.090 gprot⋅mL ^-1 | LDH release (IEC-6/TRPV1+ cells [4]; 5 μM, 24 h): 0.300 ± 0.052 gprot⋅mL ^-1 | LDH release (IEC-6/TRPV1+ cells [4]; 10 μM, 12 h): 0.337 ± 0.005 gprot⋅mL ^-1 | LDH release (IEC-6/TRPV1+ cells [4]; 10 μM, 24 h): 0.299 ± 0.072 gprot⋅mL ^-1 | LDH release compared with the control (IEC-6/TRPV1+ cells [4]): not any significant difference | LDH release (IEC-6/TRPV1- cells [5]; 1 μM, 12 h): 0.638 ± 0.131 gprot⋅mL ^-1 | LDH release (IEC-6/TRPV1- cells [5]; 1 μM, 24 h): 0.433 ± 0.127 gprot⋅mL ^-1 | LDH release (IEC-6/TRPV1- cells [5]; 5 μM, 12 h): 0.651 ± 0.120 gprot⋅mL ^-1 | LDH release (IEC-6/TRPV1- cells [5]; 5 μM, 24 h): 0.554 ± 0.103 gprot⋅mL ^-1 | LDH release (IEC-6/TRPV1- cells [5]; 10 μM, 12 h): 0.535 ± 0.119 gprot⋅mL ^-1 | LDH release (IEC-6/TRPV1- cells [5]; 10 μM, 24 h): 0.502 ± 0.106 gprot⋅mL ^-1
Structure (SMILES): CO[C@@H]1[C@@H](OC(N)=O)[C@@H](O)[C@H](Oc2ccc3c(O)c(NC(=O)c4ccc(O)c(CC=C(C)C)c4)c(=O)oc3c2C)OC1(C)C [NOVO, novobiocin]
Cell Survival (IEC-6/TRPV1+ cells [1]; 1.25 μM, incubation 12 h): 1.208 ± 0.172 | Cell Survival (IEC-6/TRPV1+ cells [1]; 1.25 μM, incubation 24 h): 1.353 ± 0.192 | Cell Survival (IEC-6/TRPV1+ cells [1]; 2.5 μM, incubation 12 h): 1.139 ± 0.157 | Cell Survival (IEC-6/TRPV1+ cells [1]; 2.5 μM, incubation 24 h): 1.326 ± 0.252 | Cell Survival (IEC-6/TRPV1+ cells [1]; 5 μM, incubation 12 h): 1.118 ± 0.201 | Cell Survival (IEC-6/TRPV1+ cells [1]; 5 μM, incubation 24 h): 1.282 ± 0.203 | Cell Survival (IEC-6/TRPV1+ cells [1]; 10 μM, incubation 12 h): 1.156 ± 0.135 | Cell Survival (IEC-6/TRPV1+ cells [1]; 10 μM, incubation 24 h): 0.954 ± 0.012 | Cell Survival (IEC-6/TRPV1+ cells [1]; 20 μM, incubation 12 h): 1.113 ± 0.102 | Cell Survival (IEC-6/TRPV1+ cells [1]; 20 μM, incubation 24 h): 0.744 ± 0.232 | Cell Survival (IEC-6/TRPV1+ cells [1]; 40 μM, incubation 12 h): 1.018 ± 0.091 | Cell Survival (IEC-6/TRPV1+ cells [1]; 40 μM, incubation 24 h): 0.752 ± 0.291 | Cell Survival (IEC-6/TRPV1+ cells [1]; 50 μM, incubation 12 h): 1.065 ± 0.125 | Cell Survival (IEC-6/TRPV1+ cells [1]; 50 μM, incubation 24 h): 0.668 ± 0.124 | concentration up to which more than 80% of the cells were viable (IEC-6/TRPV1+ cells [1]; both IEC-6/TRPV1+ and IEC-6/TRPV1-, incubated 24 h): 10 µM | Cell Survival (IEC-6/TRPV1- cells [2]; 1.25 μM, incubation 12 h): 1.261 ± 0.512 | Cell Survival (IEC-6/TRPV1- cells [2]; 1.25 μM, incubation 24 h): 1.192 ± 0.099 | Cell Survival (IEC-6/TRPV1- cells [2]; 2.5 μM, incubation 12 h): 1.063 ± 0.361 | Cell Survival (IEC-6/TRPV1- cells [2]; 2.5 μM, incubation 24 h): 1.113 ± 0.177 | Cell Survival (IEC-6/TRPV1- cells [2]; 5 μM, incubation 12 h): 1.128 ± 0.274 | Cell Survival (IEC-6/TRPV1- cells [2]; 5 μM, incubation 24 h): 0.952 ± 0.134 | Cell Survival (IEC-6/TRPV1- cells [2]; 10 μM, incubation 12 h): 1.101 ± 0.101 | Cell Survival (IEC-6/TRPV1- cells [2]; 10 μM, incubation 24 h): 0.861 ± 0.088 | Cell Survival (IEC-6/TRPV1- cells [2]; 20 μM, incubation 12 h): 1.011 ± 0.194 | Cell Survival (IEC-6/TRPV1- cells [2]; 20 μM, incubation 24 h): 0.749 ± 0.138 | Cell Survival (IEC-6/TRPV1- cells [2]; 40 μM, incubation 12 h): 1.051 ± 0.214 | Cell Survival (IEC-6/TRPV1- cells [2]; 40 μM, incubation 24 h): 0.647 ± 0.015 | Cell Survival (IEC-6/TRPV1- cells [2]; 50 μM, incubation 12 h): 1.123 ± 0.293 | Cell Survival (IEC-6/TRPV1- cells [2]; 50 μM, incubation 24 h): 0.591 ± 0.261 | expression of TRPV1 mRNA and protein (TRPV1; 2.5-10 μM NOVO, over 24 h, Figures 2A,B,F): dramatically attenuate | fluorescence intensity of TRPV1 (TRPV1): reduced | accumulation of CAP, co-incubation (IEC-6/TRPV1- cells [3]): did not change

LDH release (IEC-6/TRPV1+ cells [4]; 0.1 μM, 12 h): 0.469 ± 0.124 gprot⋅mL ^-1 | LDH release (IEC-6/TRPV1+ cells [4]; 0.1 μM, 24 h): 0.423 ± 0.149 gprot⋅mL ^-1 | LDH release compared with the control (IEC-6/TRPV1+ cells [4]): not any significant difference | LDH release (IEC-6/TRPV1- cells [5]; 0.1 μM, 12 h): 0.509 ± 0.155 gprot⋅mL ^-1 | LDH release (IEC-6/TRPV1- cells [5]; 0.1 μM, 24 h): 0.537 ± 0.019 gprot⋅mL ^-1
Structure (SMILES): O=C(Nc1ccccc1Br)N[C@@H]1CCN(c2ccc(C(F)(F)F)cn2)C1 [SB-705498]
Cell Survival (IEC-6/TRPV1+ cells [1]; 0.001 μM, incubation 12 h): 1.114 ± 0.190 | Cell Survival (IEC-6/TRPV1+ cells [1]; 0.001 μM, incubation 24 h): 1.018 ± 0.061 | Cell Survival (IEC-6/TRPV1+ cells [1]; 0.01 μM, incubation 12 h): 1.101 ± 0.236 | Cell Survival (IEC-6/TRPV1+ cells [1]; 0.01 μM, incubation 24 h): 1.129 ± 0.185 | Cell Survival (IEC-6/TRPV1+ cells [1]; 0.1 μM, incubation 12 h): 1.274 ± 0.223 | Cell Survival (IEC-6/TRPV1+ cells [1]; 0.1 μM, incubation 24 h): 1.118 ± 0.139 | Cell Survival (IEC-6/TRPV1+ cells [1]; 1 μM, incubation 12 h): 1.203 ± 0.139 | Cell Survival (IEC-6/TRPV1+ cells [1]; 1 μM, incubation 24 h): 1.052 ± 0.100 | Cell Survival (IEC-6/TRPV1+ cells [1]; 5 μM, incubation 12 h): 1.276 ± 0.156 | Cell Survival (IEC-6/TRPV1+ cells [1]; 5 μM, incubation 24 h): 0.976 ± 0.098 | Cell Survival (IEC-6/TRPV1- cells [2]; 0.001 μM, incubation 12 h): 1.261 ± 0.268 | Cell Survival (IEC-6/TRPV1- cells [2]; 0.001 μM, incubation 24 h): 0.999 ± 0.082 | Cell Survival (IEC-6/TRPV1- cells [2]; 0.01 μM, incubation 12 h): 1.158 ± 0.144 | Cell Survival (IEC-6/TRPV1- cells [2]; 0.01 μM, incubation 24 h): 0.968 ± 0.218 | Cell Survival (IEC-6/TRPV1- cells [2]; 0.1 μM, incubation 12 h): 1.169 ± 0.333 | Cell Survival (IEC-6/TRPV1- cells [2]; 0.1 μM, incubation 24 h): 0.962 ± 0.184 | Cell Survival (IEC-6/TRPV1- cells [2]; 1 μM, incubation 12 h): 1.001 ± 0.229 | Cell Survival (IEC-6/TRPV1- cells [2]; 1 μM, incubation 24 h): 0.933 ± 0.077 | Cell Survival (IEC-6/TRPV1- cells [2]; 5 μM, incubation 12 h): 0.931 ± 0.296 | Cell Survival (IEC-6/TRPV1- cells [2]; 5 μM, incubation 24 h): 0.907 ± 0.039 | fluorescence intensity of TRPV1 (TRPV1): reduced | accumulation of CAP, co-incubation (IEC-6/TRPV1- cells [3]): did not change
